# Data: patent publication US9850256B2, “Antibacterial basic biaromatic derivatives with aminoalkoxy substitution” (priority 2014, dated 2017)
# Assays:
# Assay in all cases: Bacterial growth minimal inhibitory concentration (microdilution, cation-adjusted Mueller-Hinton Broth)
# [1] = test system: P. aeruginosa ATCC 27853; type: cell-based, Pseudomonas aeruginosa; details: Pseudomonas aeruginosa, ATCC27853; quinolone-sensitive strain
# In short: (§1)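 Broth microdilution in cation-adjusted Mueller-Hinton Broth per CLSI M7-A7; MICs in mg/L. S. aureus A798 is methicillin- and quinolone-resistant, K. pneumoniae T6474 penicillin-, cephalosporin- and quinolone-resistant; E. coli ATCC25922 and P. aeruginosa ATCC 27853 are quinolone-sensitive.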
# [2] = test system: K. pneumoniae T6474; type: cell-based, Klebsiella pneumoniae; details: Klebsiella pneumoniae, T6474; multiply-resistant strain (penicillin-, cephalosporin- and quinolone-resistant)
# In short: as §1
# [3] = test system: S. aureus A798; type: cell-based, Staphylococcus aureus; details: Staphylococcus aureus, A798; multiply-resistant strain (methicillin- and quinolone-resistant)
# In short: as §1
# [4] = test system: E. coli ATCC25922; type: cell-based; details: Escherichia coli, ATCC25922; quinolone-sensitive strain
# In short: as §1
Structure (SMILES),MIC [1] [µg/mL],MIC [2] [µg/mL],MIC [3] [µg/mL],MIC [4] [µg/mL]
"CN1CC[C@H](Oc2cccc(-c3cncc(CNCC[C@H]4CN(c5ccc6c(n5)NC(=O)CO6)C(=O)O4)c3)n2)C1 [Example $138, 6-[(S)-5-(2-{[6-((S)-1-methyl-pyrrolidin-3-yloxy)-[2,3′]bipyridinyl-5′-ylmethyl]-amino}-ethyl)-2-oxo-oxazolidin-3-yl]-4H-pyrido[3,2-b][1,4]oxazin-3-one]",2,2,2,1
"CN1CC[C@H](Oc2cccc(-c3cc(CNCC[C@H]4CN(c5ccc6c(n5)NC(=O)CO6)C(=O)O4)ccn3)n2)C1 [Example $139, 6-[(S)-5-(2-{[6′-((S)-1-methyl-pyrrolidin-3-yloxy)-[2,2′]bipyridinyl-4-ylmethyl]-amino}-ethyl)-2-oxo-oxazolidin-3-yl]-4H-pyrido[3,2-b][1,4]oxazin-3-one]",2,1,0.25,1
"CN1CC[C@@H](COc2cccc(-c3cccc(CNCC[C@H]4CN(c5ccc6c(n5)NC(=O)CO6)C(=O)O4)c3)n2)C1 [Example $140, 6-[(S)-5-(2-{3-[6-((R)-1-methyl-pyrrolidin-3-ylmethoxy)-pyridin-2-yl]-benzylamino}-ethyl)-2-oxo-oxazolidin-3-yl]-4H-pyrido[3,2-b][1,4]oxazin-3-one]",2,2,0.5,2
"CN1CC[C@H](COc2cccc(-c3cccc(CNCC[C@H]4CN(c5ccc6c(n5)NC(=O)CO6)C(=O)O4)c3)n2)C1 [Example $141, 6-[(S)-5-(2-{3-[6-((S)-1-methyl-pyrrolidin-3-ylmethoxy)-pyridin-2-yl]-benzylamino}-ethyl)-2-oxo-oxazolidin-3-yl]-4H-pyrido[3,2-b][1,4]oxazin-3-one]",2,2,0.5,2
"O=C1COc2ccc(N3C[C@H](CCNCc4cccc(-c5cccc(OC[C@@H]6CCNC6)n5)c4)OC3=O)nc2N1 [Example $143, 6-[(S)-2-oxo-5-(2-{3-[6-((R)-1-pyrrolidin-3-ylmethoxy)-pyridin-2-yl]-benzylamino}-ethyl)-oxazolidin-3-yl]-4H-pyrido[3,2-b][1,4]oxazin-3-one]",1,4,2,2
"O=C1COc2ccc(N3C[C@H](CCNCc4cccc(-c5cccc(OC[C@H]6CCNC6)n5)c4)OC3=O)nc2N1 [Example $144, 6-[(S)-2-oxo-5-(2-{3-[6-((S)-1-pyrrolidin-3-ylmethoxy)-pyridin-2-yl]-benzylamino}-ethyl)-oxazolidin-3-yl]-4H-pyrido[3,2-b][1,4]oxazin-3-one]",1,4,2,4
"CN1CC[C@H](Oc2cncc(-c3cccc(CNCC[C@H]4CN(c5ccc6c(n5)NC(=O)CO6)C(=O)O4)n3)n2)C1 [Example $145, 6-{(S)-5-[2-({6-[6-((S)-1-methyl-pyrrolidin-3-yloxy)-pyrazin-2-yl]-pyridin-2-ylmethyl}-amino)-ethyl]-2-oxo-oxazolidin-3-yl}-4H-pyrido[3,2-b][1,4]oxazin-3-one]",8,2,2,4
"CN1CC[C@H](Oc2cncc(-c3cncc(CNCC[C@H]4CN(c5ccc6c(n5)NC(=O)CO6)C(=O)O4)c3)n2)C1 [Example $146, 6-{(S)-5-[2-({5-[6-((S)-1-methyl-pyrrolidin-3-yloxy)-pyrazin-2-yl]-pyridin-3-ylmethyl}-amino)-ethyl]-2-oxo-oxazolidin-3-yl}-4H-pyrido[3,2-b][1,4]oxazin-3-one]",4,4,4,2
"CN1CC[C@H](Oc2cncc(-c3cc(CNCC[C@H]4CN(c5ccc6c(n5)NC(=O)CO6)C(=O)O4)ccn3)n2)C1 [Example $147, 6-{(S)-5-[2-({2-[6-((S)-1-methyl-pyrrolidin-3-yloxy)-pyrazin-2-yl]-pyridin-4-ylmethyl}-amino)-ethyl]-2-oxo-oxazolidin-3-yl}-4H-pyrido[3,2-b][1,4]oxazin-3-one]",4,1,1,1
"CN1CC[C@H](Oc2cncc(-c3ccnc(CNCC[C@H]4CN(c5ccc6c(n5)NC(=O)CO6)C(=O)O4)c3)n2)C1 [Example $148, 6-{(S)-5-[2-({4-[6-((S)-1-methyl-pyrrolidin-3-yloxy)-pyrazin-2-yl]-pyridin-2-ylmethyl}-amino)-ethyl]-2-oxo-oxazolidin-3-yl}-4H-pyrido[3,2-b][1,4]oxazin-3-one]",1,1,1,1
"CN1CC(Oc2cccc(-c3cccc(CNCC[C@@H]4CN(c5ccc6c(c5)NC(=O)CS6)C(=O)O4)c3)n2)C1 [Example $149, 6-[(R)-5-(2-{3-[6-(1-methyl-azetidin-3-yloxy)-pyridin-2-yl]-benzylamino}-ethyl)-2-oxo-oxazolidin-3-yl]-4H-benzo[1,4]thiazin-3-one]",1,1,0.5,0.5
"CN1CC[C@H](Oc2cccc(-c3cccc(CNCC[C@@H]4CN(c5ccc6c(c5)NC(=O)CS6)C(=O)O4)c3)n2)C1 [Example $150, 6-[(R)-5-(2-{3-[6-((S)-1-methyl-pyrrolidin-3-yloxy)-pyridin-2-yl]-benzylamino}-ethyl)-2-oxo-oxazolidin-3-yl]-4H-benzo[1,4]thiazin-3-one]",2,2,2,2
"O=C1COc2ccc(N3C[C@@H](CCNCc4cccc(-c5cccc(OC[C@@H]6CCN6)n5)c4)OC3=O)nc2N1 [Example $151, 6-[(R)-5-(2-{3-[6-((S)-1-azetidin-2-ylmethoxy)-pyridin-2-yl]-benzylamino}-ethyl)-2-oxo-oxazolidin-3-yl]-4H-pyrido[3,2-b][1,4]oxazin-3-one]",1,2,4,2
"O=C1CSc2ccc(N3C[C@@H](CCNCc4cccc(-c5cccc(OC[C@@H]6CCN6)n5)c4)OC3=O)cc2N1 [Example $152, 6-[(R)-5-(2-{3-[6-((S)-1-azetidin-2-ylmethoxy)-pyridin-2-yl]-benzylamino}-ethyl)-2-oxo-oxazolidin-3-yl]-4H-benzo[1,4]thiazin-3-one]",1,4,4,2
"CN1CC[C@H](Oc2cnnc(-c3cccc(CNCC[C@H]4CN(c5ccc6c(n5)NC(=O)CO6)C(=O)O4)c3)c2)C1 [Example $153, 6-[(S)-5-(2-{3-[5-((S)-1-methyl-pyrrolidin-3-yloxy)-pyridazin-3-yl]-benzylamino}-ethyl)-2-oxo-oxazolidin-3-yl]-4H-pyrido[3,2-b][1,4]oxazin-3-one]",4,4,4,2
"NCCOc1ccnc(-c2cccc(CNCC[C@H]3CN(c4ccc5c(n4)NC(=O)CO5)C(=O)O3)c2)c1 [Example $154, 6-[(S)-5-(2-{3-[4-(2-amino-ethoxy)-pyridin-2-yl]-benzylamino}-ethyl)-2-oxo-oxazolidin-3-yl]-4H-pyrido[3,2-b][1,4]oxazin-3-one]",0.5,4,4,1
